Measurements: US20030186943A1, “Substituted gamma-phenyl-delta-lactams and uses related thereto” (Inflazyme Pharmaceuticals Ltd., priority 1998, published 2003)
“And” between values parts separate entries of the source, which are not always exact repeats. Equal entries are not always repeated.

How the values were obtained:
[1] = system: collagen-induced arthritis (CIA) in the mouse; experiment: Murine collagen-induced arthritis model; format: in vivo
Method: Male DBA/1J mice (7-8 weeks of age) were immunized through a subcutaneous injection of 0.1 mL of a collagen-adjuvant emulsion (0.1 mg chick type II collagen in complete Freund's adjuvant) at the base of the tail. Mice were then randomly assigned to treatment or control groups in the following manner: Compound 43 (n=10); 45% 2-hydroxypropyl betacyclodextrin in 0.9% saline vehicle control (n-10); untreated (n=5) and dexamethasone positive control (n=5). After three weeks the animals were boosted with a second injection of chick type II collagen emulsified at 1.0 mg/mL in incomplete Freund's adjuvant. This second injection is required for reproducible induction of disease. In control animals, clinical signs of arthritis manifested as erythema and edema of the paws and tarsal/metatarsal joints usually appear within 1-2 weeks following the second immunization. Compounds were evaluated for their ability to delay the onset of or reduce the development of arthritis (prophylactic regime). Vehicle, dexamethasone positive control (0.075 mg/kg) and compound 43 (10 mg/kg) were administered twice daily (50 microliter per injection) by i.p. injection beginning on the day of the second collagen injection. The mice continued to receive doses until the last animal in the vehicle control group reached the seventh day of having established disease. In this particular case, this necessitated treatment for 25 days including the day of the booster injection.
The development of clinical arthritis (disease progression) was monitored daily after the second collagen injection. All four limbs were clinically evaluated by a trained observer unfamiliar (blinded) with the treatment group identity, and scored on a scale of 0-4 for disease severity (redness and swelling) according to the following criteria.
Inflammation was defined as any redness or swelling (enlargement) of any part of any paw. Established disease was defined as a qualitative score of paw inflammation of 2 or greater, that persists for at least 24 hours. In addition, paw widths for all four limbs were measured by a blinded observer daily using precision, constant tension calipers.
At the end of the study each animal was euthanized by an overdose of halothane anesthesia. Joints both distal to the knee and including the knee were dissected and analyzed by histology. Limb joints were fixed in 10% formalin buffer and decalcified in 10% formic acid for 48 hours, then processed for paraffin embedding. Serial sections (5-7 micrometer thick) were stained with haematoxylin and eosin (H & E). Histopathological alterations of the tarsal and metatarsal joints were graded “blind” by a certified pathologist and a score assigned based on a ranking system.
Mice were sacrificed on the 25th day after the second collagen injection corresponding to approximately the 10th day of established disease. All four paws from each animal in the study were removed, fixed and processed for blinded histopathological examination by an ACVP board certified veterinary pathologist. Joint pathology for each foot was classified on a scale of 0 to 4, with 0 being normal and 4 the most severely affected. Lesion grades were assigned based on the most severe lesion(s) present in the paw according to the following scale:
The individual paw scores were then summed to obtain a total for each animal with a maximum possible score for an animal being 16. Group values were obtained by averaging the individual animal scores.

[2] = system: T1, High Affinity Rolipram Binding Site of PDE4 in Mouse Brain; experiment: Displacement of [3H]-rolipram from its high affinity binding site (HARBS)
T1 construct: other: mouse brain membranes, [3H]-Rolipram; X marks this range; other: mouse brain membranes, [3H]; Suspension was centrifuged twice at 30,000×G at 4° C. and the supernatant discarded

[3] = system: Th1 cells; experiment: Proliferation of differentiated Th1 CD4+ T cells; format: cell-based, mouse; settings: CD4+ T cells already differentiated into Th1 phenotype
Method: The differentiation of naive CD4 T cells toward Th1 and Th2 lineages was performed as follows: 1×10^5 AND-lymph node T cells were cultured with […] B10.BR irradiated spleen cells in 2 ml of culture media with the following supplements: for Th1 cell differentiation, 100 U/mL IFNγ, 25U/mL IL2 and 10 ug/mL anti-IL4; for Th2 cell differentiation, 150 U/mL IL4, 25 U/mL IL2 and 10 ug/mL anti-IFNγ. After 3-4 days the wells were split 1:4 with the same additions. After 7 days the cells were harvested and washed 3 times to remove cytokines in the supernatents. 1×10^5 cultured cells were restimulated with 5×10^5 irradiated B10BR spleen cells +5 μM pcc peptide in 250 μl culture media without any added cytokines. The supernatents were harvested after 40 hrs and assessed for IL2, IL4 and IFNγ by ELISA. Test compounds were added throughout the differentiation of the culture.
Cultured Th1 and Th2 cells generated in the absence of test compounds were tested for proliferation and cytokine activity as described above during antigen stimulation in the presence of compound.

[4] = system: TNBS-induced colitis in the rat; experiment: TNBS-induced colitis model of inflammatory bowel disease in the rat; settings: for MPO Activity (U/mg): colonic tissue;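 on all read-outs here: rat colitis induced by intracolonic TNBS in 50% ethanol, distal colon assessed at sacrifice on day 7, with saline-instilled vehicle-treated rats as controls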
Method: Colitis was induced by intracolonic instillation of the hapten TNBS (60 mg/mL) in 0.5 mL of 50% ethanol. […] An additional group of rats received saline intracolonically in place of TNBS/ethanol and was treated with vehicle at the same times as outlined above. Body weights were recorded at the beginning of the study and at days 2 and 7.
The rats were sacrificed on the 7th day after the induction of colitis and the extent of damage and inflammation was assessed. After the rats were sacrificed, the distal colon was removed and pinned out on a wax platform. The presence or absence of diarrhea was noted, as well as the presence and severity of adhesions between the colon and other organs, and the severity and extent of colonic damage. […] After scoring, a sample of colonic tissue was excised for measurement of myeloperoxidase activity as an index of granulocyte infiltration (see Wallace et al., Gastroenterology 117: in press, 1999; and Morris et al., Gastroenterology 96:795-803, 1989). This tissue sample was 1 cm long (along the axis of the colon) and 5 mm wide and was taken from a region of macroscopically visible damage (or the corresponding region in any rats in which there was no damage). The remainder of the tissue was fixed in neutral buffered formalin and processed by routine methods for subsequent evaluation by light microscopy. In a blinded manner, the sample of colonic tissue from each rat was examined for evidence of mucosal ulceration and inflammation. The percentage of the luminal surface of the section in which ulceration was present was calculated.

[5] = system: mixed-lymphocyte-reaction; experiment: One way and two way mixed-lymphocyte-reaction (MLR); format: cell-based; settings: read-out: inhibition of proliferation in MLR
[6] = 10 mg/kg i.p. twice daily, prophylactic, Day 25 after collagen boost
[7] = 10 mg/kg intracolonically at 12 h intervals for one week, day 7

COc1cc(CC2C[C@@H](c3ccc(OC)c(OC4CCCC4)c3)COC2=O)ccc1O (some centres unmarked) [Compound 43]
reduction of arthritis score compared to the vehicle group ([1]; 10 mg/kg i.p. bid, day 25): 35% | reduction of histopathological score compared to the vehicle group ([1]; 10 mg/kg i.p. bid, day 25): 29% | reduction of paw edema compared to the vehicle group ([1]; 10 mg/kg i.p. bid, day 25): 42% | Histopathological Score (range) ([1]; 10 mg/kg i.p. twice daily, Day 25, maximum possible score 16): 7.7 (1-15) | Paw Arthritis Score [1, 6]: 3.3 ± .64 | Paw Edema (1/100 in.) [1, 6]: 0.052 ± .0051 1/100 in. | rate of disease progression as assessed by paw score ([1]; 10 mg/kg i.p., bid, last 10 days of the study): significantly reduced | times less potent than rolipram for interaction with the HARBS conformer of PDE4 [2]: approximately 28 fold | IC50 ([2]; read-out: IC50 for displacement of 3H-rolipram from high-affinity binding site (HARBS activity), mouse brain): 250 nM | inhibition of Th1 cells [3]: approx. 30% | colonic damage score (% of vehicle) ([4]; 10 mg/kg): 49 % of vehicle | histological score (% of control) ([4]; 10 mg/kg): 52 % of control | incidence of adhesions (% of vehicle) ([4]; 10 mg/kg): 36 % of vehicle | thickness of the bowel wall (% of vehicle) ([4]; 10 mg/kg): 30 % of vehicle | total reduction in the global colitis score compared to vehicle treated animals ([4]; 10 mg/kg): 51% | Mortality ([4]; 10 mg/kg intracolonically at 12 h intervals for one week): 0/8 | Adhesion (Incidence) [4, 7]: (3/8)^ζ | Adhesion Score [4, 7]: 0.5 ± 0.3 | Bowel Thickness (mm) [4, 7]: 1.67 ± 0.28 mm | Damage Score [4, 7]: 3.4 ± 0.9 | Global Colitis Score [4, 7]: 5.86 ± 1.35 | MPO Activity (U/mg) [4, 7]: 65.1 ± 8.6 U/mg | MPO Activity (U/mg) ([4]; 10 mg/kg intracolonically at 12 h intervals for one week, day 7, 10 mg/kg): not prevented | Diarrhea ([4]; incidence, 10 mg/kg intracolonically at 12 h intervals for one week, day 7, 10 mg/kg): not statistically significant and 3/8 | Histology Score ([4]; percentage of luminal surface ulcerated, 10 mg/kg intracolonically for one week, day 7): 50.6 ± 10.5 | inhibition at 20 µM [5]: ≥ 50%
